In patent US20250195536A1, “BICYCLOOCTANE KRAS INHIBITORS” (Incyte Corporation, priority 2023, published 2025):

Experiments:
KRAS G12D = KRAS G12D (Homo sapiens, UniProt P01116, G12D); assay: GDP-GTP exchange assay (KRAS G12D); format: biochemical; settings: bodipy-GDP/GppNHp exchange with SOS1; 4 h pre-incubation, 2 h reaction;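 further: one dagger IC50 up to 100 nM and two daggers above 100 nM up to 1 μM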
Outline: (§1)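 IC50 came from a four-parameter fit of fluorescence loss (485/520 nm) as SOS1 (150 nM) swapped bodipy-GDP for GppNHp (500 μM) on 2.5 nM KRAS, final concentrations. Compounds were pre-incubated 4 h at r.t. (pH 7.5 Hepes, 10 mM MgCl2); exchange ran 2 h (G12D) or 3 h (G12V).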

[1] = Caco2 assay (permeability, Papp A-B); format: in vitro ADME; settings: human, Caco-2, absorptive direction (A-B), 50 μM test compound, 4% BSA in receiver
Description: Caco-2 cells are grown at 37° C. in an atmosphere of 5% CO2 in DMEM growth medium supplemented with 10% (v/v) fetal bovine serum, 1% (v/v) nonessential amino acids, penicillin (100 U/mL), and streptomycin (100 μg/mL). Confluent cell monolayers are subcultured every 7 days or 4 days for Caco-2 by treatment with 0.05% trypsin containing […]. Caco-2 cells are seeded in 96-well Transwell plates. The seeding density for Caco-2 cells is 14,000 cells/well. DMEM growth medium is replaced every other day after seeding. Cell monolayers are used for transport assays between 22 and 25 days for Caco-2 cells.
Cell culture medium is removed and replaced with HBSS. To measure the TEER, the HBSS is added into the donor compartment (apical side) and receiver compartment (basolateral side). The TEER is measured by using a REMS Autosampler to ensure the integrity of the cell monolayers. Caco-2 cell monolayers with TEER values 300 Ω·cm^2 are used for transport experiments. To determine the Papp in the absorptive direction (A-B), solution of test compound (50 μM) in HBSS is added to the donor compartment (apical side), while HBSS solution with 4% BSA is added to the receiver compartment (basolateral side). The apical volume was 0.075 mL, and the basolateral volume is 0.25 mL. The incubation period is 120 min. at 37° C. in an atmosphere of 5% CO2. At the end of the incubation period, samples from the donor and receiver sides are removed and an equal volume of MeCN is added for protein precipitation. The supernatants are collected after centrifugation (3000 rpm, Allegra X-14R Centrifuge from Beckman Coulter, Indianapolis, IN) for LCMS analysis. The permeability value is determined according to the equation:
Papp(cm/s)=(F*VD)/(SA*MD),
where the flux rate (F, mass/time) is calc. from the slope of cumulative amounts of compound of interest on the receiver side, SA is the surface area of the cell membrane, VD is the donor volume, and MD is the initial amount of the solution in the donor chamber.
The symbol “+” indicates a Caco-2 value of ≤0.5, “++” indicates a Caco-2 value of >0.5 but ≤1; and “+++” indicates a Caco-2 value of >1. “NA” indicates Caco-2 value not available.

KRAS G12V = KRAS G12V (Homo sapiens, UniProt P01116, G12V); assay: GDP-GTP exchange assay (KRAS G12V); format: biochemical; settings: bodipy-GDP/GppNHp exchange with SOS1; 3 h incubation after GppNHp-SOS1;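 further: one dagger IC50 up to 100 nM and two daggers above 100 nM up to 1 μM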
Outline: as §1

Chain of KRAS G12V (P01116 1-188 isoform P01116-2 G12V): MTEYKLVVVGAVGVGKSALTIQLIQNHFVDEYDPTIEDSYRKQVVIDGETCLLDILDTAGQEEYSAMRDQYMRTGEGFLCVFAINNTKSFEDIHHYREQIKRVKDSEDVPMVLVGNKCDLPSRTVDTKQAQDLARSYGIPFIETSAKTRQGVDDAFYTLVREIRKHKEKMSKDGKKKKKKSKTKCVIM
Chain of KRAS G12D (P01116 1-188 isoform P01116-2 G12D): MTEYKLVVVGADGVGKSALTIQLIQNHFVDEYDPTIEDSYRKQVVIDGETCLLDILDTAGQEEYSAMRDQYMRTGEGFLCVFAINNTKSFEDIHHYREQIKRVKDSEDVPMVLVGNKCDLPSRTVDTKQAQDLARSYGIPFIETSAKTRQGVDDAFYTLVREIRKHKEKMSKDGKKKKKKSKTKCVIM

SMILES	G12D_exchange (KRAS_G12D exchange assay IC50) (KRAS G12D)	Papp A→B at 120 min, 50 μM [1]	G12V_exchange (KRAS_G12V exchange assay IC50) (KRAS G12V)
Cc1nc2c(F)c(-c3cccc(Cl)c3Cl)c(CCC#N)cc2c2c1cc([C@H]1[C@H]3C[C@H](CN(c4cnn(C(F)F)c4)C3)N1C(=O)C1CC1)n2[C@H]1[C@H]2CN[C@@H]1C2 (atropisomer, axis not shown; (Ra)) [Example 8, 3-((Ra)-1-((1R,4R,5S)-2-azabicyclo[2.1.1]hexan-5-yl)-2-((1S,5R,7R)-6-(cyclopropanecarbonyl)-3-(1-(difluoromethyl)-1H-pyrazol-4-yl)-3,6-diazabicyclo[3.2.1]octan-7-yl)-7-(2,3-dichlorophenyl)-6-fluoro-4-methyl-1H-pyrrolo[3,2-c]quinolin-8-yl)propanenitrile]	†	≤ 0.5 ×10⁻⁶ cm/s	†
Cc1nc2c(F)c(-c3cccc(Cl)c3Cl)c(CCC#N)cc2c2c1cc([C@H]1[C@H]3C[C@H](CN(c4cccnc4)C3)N1C(=O)C1CC1)n2[C@H]1[C@H]2CN[C@@H]1C2 (atropisomer, axis not shown; (Ra)) [Example 9, 3-((Ra)-1-((1R,4R,5S)-2-azabicyclo[2.1.1]hexan-5-yl)-2-((1S,5R,7R)-6-(cyclopropanecarbonyl)-3-(pyridin-3-yl)-3,6-diazabicyclo[3.2.1]octan-7-yl)-7-(2,3-dichlorophenyl)-6-fluoro-4-methyl-1H-pyrrolo[3,2-c]quinolin-8-yl)propanenitrile]	†	≤ 0.5 ×10⁻⁶ cm/s	†
Cc1nc2c(F)c(-c3cccc(Cl)c3Cl)c(CCC#N)cc2c2c1cc([C@H]1[C@H]3C[C@H](CN(c4cccc(F)c4)C3)N1C(=O)C1CC1)n2[C@H]1[C@H]2CN[C@@H]1C2 (atropisomer, axis not shown; (Ra)) [Example 13, 3-((Ra)-1-((1R,4R,5S)-2-azabicyclo[2.1.1]hexan-5-yl)-2-((1S,5R,7R)-6-(cyclopropanecarbonyl)-3-(3-fluorophenyl)-3,6-diazabicyclo[3.2.1]octan-7-yl)-7-(2,3-dichlorophenyl)-6-fluoro-4-methyl-1H-pyrrolo[3,2-c]quinolin-8-yl)propanenitrile]	†	≤ 0.5 ×10⁻⁶ cm/s	†
Cc1ccc(N2C[C@@H]3C[C@H](C2)N(C(=O)C2CC2)[C@H]3c2cc3c(C)nc4c(F)c(-c5cccc(Cl)c5Cl)c(CCC#N)cc4c3n2[C@H]2[C@H]3CN[C@@H]2C3)cn1 (atropisomer, axis not shown; (Ra)) [Example 14, 3-((Ra)-1-((1R,4R,5S)-2-azabicyclo[2.1.1]hexan-5-yl)-2-((1S,5R,7R)-6-(cyclopropanecarbonyl)-3-(6-methylpyridin-3-yl)-3,6-diazabicyclo[3.2.1]octan-7-yl)-7-(2,3-dichlorophenyl)-6-fluoro-4-methyl-1H-pyrrolo[3,2-c]quinolin-8-yl)propanenitrile]	†	≤ 0.5 ×10⁻⁶ cm/s	†
Cc1nc2c(F)c(-c3cccc(Cl)c3Cl)c(CCC#N)cc2c2c1cc([C@H]1[C@H]3C[C@H](CN(c4cccc(C#N)c4)C3)N1C(=O)C1CC1)n2[C@H]1[C@H]2CN[C@@H]1C2 (atropisomer, axis not shown; (Ra)) [Example 17, 3-((1S,5R,7R)-7-((Ra)-1-((1R,4R,5S)-2-azabicyclo[2.1.1]hexan-5-yl)-8-(2-cyanoethyl)-7-(2,3-dichlorophenyl)-6-fluoro-4-methyl-1H-pyrrolo[3,2-c]quinolin-2-yl)-6-(cyclopropanecarbonyl)-3,6-diazabicyclo[3.2.1]octan-3-yl)benzonitrile]	††	≤ 0.5 ×10⁻⁶ cm/s	†
Cc1nc2c(F)c(-c3cccc(Cl)c3Cl)c(CCC#N)cc2c2c1cc([C@H]1[C@H]3C[C@H](CN(c4cccc(Cl)c4)C3)N1C(=O)C1CC1)n2[C@H]1[C@H]2CN[C@@H]1C2 (atropisomer, axis not shown; (Ra)) [Example 19, 3-((Ra)-1-((1R,4R,5S)-2-azabicyclo[2.1.1]hexan-5-yl)-2-((1S,5R,7R)-3-(3-chlorophenyl)-6-(cyclopropanecarbonyl)-3,6-diazabicyclo[3.2.1]octan-7-yl)-7-(2,3-dichlorophenyl)-6-fluoro-4-methyl-1H-pyrrolo[3,2-c]quinolin-8-yl)propanenitrile]	††	≤ 0.5 ×10⁻⁶ cm/s	†

More lines, now with the values ahead:

G12D_exchange (KRAS_G12D exchange assay IC50) (KRAS G12D)	Papp A→B at 120 min, 50 μM [1]	G12V_exchange (KRAS_G12V exchange assay IC50) (KRAS G12V)	SMILES
†	≤ 0.5 ×10⁻⁶ cm/s	†	Cc1nc2c(F)c(-c3cccc(Cl)c3Cl)c(CCC#N)cc2c2c1cc([C@H]1[C@H]3C[C@H](CN(c4ccc5c(c4)OC(F)(F)O5)C3)N1C(=O)C1CC1)n2[C@H]1[C@H]2CN[C@@H]1C2 (atropisomer, axis not shown; (Ra)) [Example 7, 3-((Ra)-1-((1R,4R,5S)-2-azabicyclo[2.1.1]hexan-5-yl)-2-((1S,5R,7R)-6-(cyclopropanecarbonyl)-3-(2,2-difluorobenzo[d][1,3]dioxol-5-yl)-3,6-diazabicyclo[3.2.1]octan-7-yl)-7-(2,3-dichlorophenyl)-6-fluoro-4-methyl-1H-pyrrolo[3,2-c]quinolin-8-yl)propanenitrile]
††	≤ 0.5 ×10⁻⁶ cm/s	†	Cc1nc2c(F)c(-c3cccc(Cl)c3Cl)c(CCC#N)cc2c2c1cc([C@H]1[C@H]3C[C@H](CN(c4cccc(C(F)(F)F)c4)C3)N1C(=O)C1CC1)n2[C@H]1[C@H]2CN[C@@H]1C2 (atropisomer, axis not shown; (Ra)) [Example 10, 3-((Ra)-1-((1R,4R,5S)-2-azabicyclo[2.1.1]hexan-5-yl)-2-((1S,5R,7R)-6-(cyclopropanecarbonyl)-3-(3-(trifluoromethyl)phenyl)-3,6-diazabicyclo[3.2.1]octan-7-yl)-7-(2,3-dichlorophenyl)-6-fluoro-4-methyl-1H-pyrrolo[3,2-c]quinolin-8-yl)propanenitrile]
††	≤ 0.5 ×10⁻⁶ cm/s	†	Cc1nc2c(F)c(-c3cccc(Cl)c3Cl)c(CCC#N)cc2c2c1cc([C@H]1[C@H]3C[C@H](CN(c4ccc(C(F)(F)F)cc4)C3)N1C(=O)C1CC1)n2[C@H]1[C@H]2CN[C@@H]1C2 (atropisomer, axis not shown; (Ra)) [Example 12, 3-((Ra)-1-((1R,4R,5S)-2-azabicyclo[2.1.1]hexan-5-yl)-2-((1S,5R,7R)-6-(cyclopropanecarbonyl)-3-(4-(trifluoromethyl)phenyl)-3,6-diazabicyclo[3.2.1]octan-7-yl)-7-(2,3-dichlorophenyl)-6-fluoro-4-methyl-1H-pyrrolo[3,2-c]quinolin-8-yl)propanenitrile]
†††	≤ 0.5 ×10⁻⁶ cm/s	††††	Cc1nc2c(F)c(-c3cccc(Cl)c3Cl)c(CCC#N)cc2c2c1cc([C@H]1[C@H]3C[C@H](CN(c4ccc(Cl)c(Cl)c4)C3)N1C(=O)C1CC1)n2[C@H]1[C@H]2CN[C@@H]1C2 (atropisomer, axis not shown; (Ra)) [Example 15, 3-((Ra)-1-((1R,4R,5S)-2-azabicyclo[2.1.1]hexan-5-yl)-2-((1S,5R,7R)-6-(cyclopropanecarbonyl)-3-(3,4-dichlorophenyl)-3,6-diazabicyclo[3.2.1]octan-7-yl)-7-(2,3-dichlorophenyl)-6-fluoro-4-methyl-1H-pyrrolo[3,2-c]quinolin-8-yl)propanenitrile]
